Laboratory results: patent US20210308093A1, “ACTIVATOR FOR SIMULTANEOUSLY ACTIVATING OXIDATIVE PHOSPHORYLATION AND INHIBITING GLYCOLYSIS AND USE THEREOF” (LANZHOU UNIVERSITY, priority 2019, published 2021)
Entries after “also recorded” stand apart in the source; their conditions may differ.

What was measured:
HuH7 cells [1] = test: siRNA knockdown of key enzyme of oxidative phosphorylation, effect on anti-cancer activity (MTT, HuH7); format: cell-based
Excerpt: With quantitative proteomics analysis, the present disclosure finds that the natural product baicalein can activate the oxidative phosphorylation. Then, it is necessary to clarify relationship between activation of the oxidative phosphorylation by baicalein and anti-cancer activity thereof. Cancer cells have the “Warburg effect”, that is, cancer cells tend to use glycolysis in replace of the oxidative phosphorylation which normal cells tend to use, so that cancer cells grow at a much faster rate than normal cells. […] The present disclosure verifies this phenomenon in HepG2 and HuH7 cells. […] (See FIG. 4)
The siRNA constructs listed below were designed and synthesized by GenePharma (Shanghai, China). At a modeling stage before baicalein treatment, interference was performed based on the RNAiMAX (Thermo Fisher Scientific) protocol.
(§1) 10^4 cells were added to a 96-well plate. 100 μL of pre-warmed medium was added to each well. After attachment, the cells were starved in a serum-free medium for 24 h, and then transferred to a normal medium containing 100 μM baicalein and cultured for another 24 h. After treatment, the cells were incubated with 100 μL of conventional medium containing 50 μg MTT (Sigma-Aldrich) for 4 h. Finally, purple precipitates were dissolved in 200 μL of DMSO (Sigma-Aldrich), and absorbance at 490 nm was measured by a microplate reader (Bio-Rad).

[2] = mouse, in vivo
Description: (§2) The present disclosure carries out experiments to test proliferation inhibition effects of baicalein on hepatocellular-carcinoma cell lines HuH7 and HepG2 respectively, with IC50 values calculated. […] Moreover, the present disclosure establishes a diethylnitrosamine-induced mouse liver cancer model which is then intervened with baicalein.
(§3) All animal operations were carried out based on a protocol approved by the Animal Research Committee of Peking University, China, in accordance with the “Guidelines for Care and Use of Laboratory Animals” (NIH Publication No. 86-23, revised in 1985). All mice (C57BL/6j, Charles River, Beijing, China) were kept in a temperature-controlled barrier facility at Laboratory Animal Center in Peking University (laboratory animal facility approved by AAALAC) with a 12 h light/dark cycle, and had free access to food and water. Only male animals were used Animals were randomly grouped based on weight level. Five mice were selected for each group to meet requirements for statistical significance. A randomised, comparative, and single-blinded test was used. For wild littermates, modeling with diethylnitrosamine was started at 6 weeks of age and maintained for 24 weeks. After 12 weeks of modeling, 400 mg/kg baicalein (40 mg/mL saline) was administered by gavage daily for another 12 weeks, and then liver disease-related symptoms of these mice were analyzed.
(§4) A liver sample cut from a same leaf of each animal was fixed in 4% paraformaldehyde overnight at room temperature, dehydrated with an ethanol gradient, infiltrated with xylene and embedded in paraffin. A paraffin embedded tissue was used to prepare serial sections 5 μm thick for hematoxylin and eosin (H&E) staining.

[3] = test system: diethylnitrosamine-induced hepatocellular carcinoma; conditions: 400 mg/kg by gavage daily for 12 weeks
Description: as §2, §3, §4

[4] = test system: oxidative phosphorylation in mitochondria; test: Measurement of oxidative phosphorylation (ATP production) in mitochondria extracted from HuH7 cells; format: biochemical; conditions: concentration gradient and incubation time gradient
Description: Based on the above results, effect of baicalein on oxidative phosphorylation needs to be clarified initially. Therefore, effects of different concentrations of baicalein on oxidative phosphorylation are tested at a cellular level. […] Further analysis finds that, baicalein (100 μM) can improve basal respiration value, maximum respiration value and ATP production in oxidative phosphorylation. […] In order to further confirm effect of baicalein on the oxidative phosphorylation, the present disclosure further extracts mitochondria, a main site where the oxidative phosphorylation locates, and tests effect of baicalein concentration gradient and incubation time gradient on oxidative phosphorylation in the mitochondria. […] At this point, the present disclosure discovers a natural activator of the oxidative phosphorylation, the baicalein. […] Measurement of oxidative phosphorylation with Seahorse XF (Agilent): HuH7 cells, HepG2 cells and mitochondria were prepared. 1,000 cells or 4 μg mitochondria were added to the well plate provided by the Seahorse detection kit (Agilent, 103275-100). Related measurements were carried out following instructions. Measurement of oxidative phosphorylation (ATP production) with QQQ-MS (AB Sciex): mitochondria were extracted from HuH7 cells. A reaction system was prepared according to Table 1 below. 4 μg of mitochondria was added to a 100 μL reaction system. […]

[5] = test system: oxidative phosphorylation in HepG2 cells; test: Measurement of oxidative phosphorylation and glycolysis in HepG2 cells (Seahorse XF); format: cell-based
Excerpt: With quantitative proteomics analysis, the present disclosure finds that the natural product baicalein can activate the oxidative phosphorylation. Then, it is necessary to clarify relationship between activation of the oxidative phosphorylation by baicalein and anti-cancer activity thereof. Cancer cells have the “Warburg effect”, that is, cancer cells tend to use glycolysis in replace of the oxidative phosphorylation which normal cells tend to use, so that cancer cells grow at a much faster rate than normal cells. […] The present disclosure verifies this phenomenon in HepG2 and HuH7 cells. […] 1,000 cells or 4 μg mitochondria were added to the well plate provided by the Seahorse detection kit (Agilent, 103275-100). Related measurements were carried out following instructions.

HuH7 cells [6] = test: MTT assay, proliferation inhibition of hepatocellular-carcinoma cell line HuH7; format: cell-based
Description: as §2
(§5) Hela, HepG2, and HuH7 cells (from China Center for Type Culture Collection (Wuhan, China)) were cultured at 37° C. with 5% CO2 in Dulbecco's modified Eagle medium (DMEM, Thermo Fisher Scientific) supplemented with 10% fetal bovine serum (Thermo Fisher Scientific) and 1% penicillin-streptomycin (Thermo Fisher Scientific).
as §1

[7] = test system: oxidative phosphorylation in HuH7 cells; test: Measurement of oxidative phosphorylation and glycolysis in HuH7 cells (Seahorse XF); format: cell-based
Description: Based on the above results, effect of baicalein on oxidative phosphorylation needs to be clarified initially. Therefore, effects of different concentrations of baicalein on oxidative phosphorylation are tested at a cellular level. […] Further analysis finds that, baicalein (100 μM) can improve basal respiration value, maximum respiration value and ATP production in oxidative phosphorylation. […] In order to further confirm effect of baicalein on the oxidative phosphorylation, the present disclosure further extracts mitochondria, a main site where the oxidative phosphorylation locates, and tests effect of baicalein concentration gradient and incubation time gradient on oxidative phosphorylation in the mitochondria. […] At this point, the present disclosure discovers a natural activator of the oxidative phosphorylation, the baicalein. […] 1,000 cells or 4 μg mitochondria were added to the well plate provided by the Seahorse detection kit (Agilent, 103275-100). Related measurements were carried out following instructions.

HepG2 cells = test: MTT assay, proliferation inhibition of hepatocellular-carcinoma cell line HepG2; format: cell-based
Description: as §2, §5, §1

O=c1cc(-c2ccccc2)oc2cc(O)c(O)c(O)c12 [baicalein]
anti-cancer activity after knockdown of a key enzyme of oxidative phosphorylation (HuH7 cells [1]): greatly weakened | liver toxicity [2]: no liver toxicity | weight loss of mice [2]: no weight loss | therapeutic effect on mice with hepatocellular carcinoma [3]: significant therapeutic effect | oxidative phosphorylation in the mitochondria [4]: activation of the oxidative phosphorylation in a concentration dependent and time dependent manner | glycolysis [5]: inhibits the glycolysis | level of oxidative phosphorylation [5]: increasing level of the oxidative phosphorylation | proliferation inhibition effect (HuH7 cells [6]): significantly inhibits | glycolysis [7]: inhibits the glycolysis | ATP production in oxidative phosphorylation ([7]; baicalein 100 μM): can improve | basal respiration value ([7]; baicalein 100 μM): can improve | maximum respiration value ([7]; baicalein 100 μM): can improve | level of oxidative phosphorylation ([7]; different concentrations of baicalein): activates the oxidative phosphorylation in a concentration dependent manner; also recorded: increasing level of the oxidative phosphorylation | proliferation inhibition effect (HepG2 cells): significantly inhibits
